From ChEMBL document CHEMBL5532657, “Serendipitous discovery of Class I HDAC inhibitors from rational design of molecular glue degraders targeting HDAC” (Eur J Med Chem, 2024) come the findings set out here.

Structures are written as SMILES. Where only a bound is given, the exact number is not on record here.

The target of the experiment is T1, Histone deacetylase 7 (Homo sapiens, UniProt Q8WUI4).
T1 sequence (Q8WUI4 whole entry): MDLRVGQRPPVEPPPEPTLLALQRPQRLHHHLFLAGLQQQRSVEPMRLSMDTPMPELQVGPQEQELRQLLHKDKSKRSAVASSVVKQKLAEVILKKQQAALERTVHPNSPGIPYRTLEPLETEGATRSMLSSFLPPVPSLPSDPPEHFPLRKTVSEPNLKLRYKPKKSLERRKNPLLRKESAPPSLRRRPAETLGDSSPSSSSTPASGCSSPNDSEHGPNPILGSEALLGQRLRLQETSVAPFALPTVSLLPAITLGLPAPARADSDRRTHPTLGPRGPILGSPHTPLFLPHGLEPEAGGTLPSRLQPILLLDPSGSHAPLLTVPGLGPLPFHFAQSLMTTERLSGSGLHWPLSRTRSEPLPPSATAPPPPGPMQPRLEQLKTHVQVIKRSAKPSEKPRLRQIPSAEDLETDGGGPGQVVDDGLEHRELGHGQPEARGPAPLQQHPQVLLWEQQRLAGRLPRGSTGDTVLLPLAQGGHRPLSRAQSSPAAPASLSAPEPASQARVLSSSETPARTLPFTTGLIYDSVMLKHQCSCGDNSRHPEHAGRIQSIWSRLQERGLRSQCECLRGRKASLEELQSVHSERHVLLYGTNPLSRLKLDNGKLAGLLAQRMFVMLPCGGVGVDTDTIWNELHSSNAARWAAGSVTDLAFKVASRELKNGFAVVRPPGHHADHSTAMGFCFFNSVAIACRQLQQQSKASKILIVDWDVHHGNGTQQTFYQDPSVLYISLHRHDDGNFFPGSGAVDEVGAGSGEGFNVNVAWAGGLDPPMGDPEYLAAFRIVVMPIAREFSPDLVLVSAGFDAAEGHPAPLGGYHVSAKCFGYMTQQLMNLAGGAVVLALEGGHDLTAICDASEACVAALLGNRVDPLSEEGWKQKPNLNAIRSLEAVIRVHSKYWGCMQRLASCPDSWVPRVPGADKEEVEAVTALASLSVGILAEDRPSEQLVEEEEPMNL
The experiment is described as follows: Inhibition of HDAC7 in human HeLa cells nuclear extract using BocLys(acetyl)-AMC as substrate incubated for 1 hr by fluorescence plate reader analysis. It is filed as subcellular, Nucleus.

As to `Nc1cc(F)ccc1NC(=O)c1ccc(CNc2cccc3c2C(=O)N(C2CCC(=O)NC2=O)C3=O)cc1` (configuration not stated), the IC50 is greater than 2000 nM.
For `Nc1ccccc1NC(=O)c1ccc(CNc2cccc3c2C(=O)N(C2CCC(=O)NC2=O)C3=O)cc1` (configuration not stated) the value was greater than 2000 nM.

The IC50 is the point on the concentration scale where inhibition reaches its midpoint. Low readings indicate greater potency in that assay, high ones weaker potency in that assay.
